Measurements: patent publication US12077503B2, “Substituted cyclic amides and their use as herbicides” (FMC CORPORATION, priority 2015, dated 2024)

How the values were obtained:
Format in all cases: in vivo
[1] = test system: velvetleaf (Abutilon theophrasti); experiment: Test G Pre-Emergence Protocol; conditions: Abutilon theophrasti, pre-emergence, 312 h, evaluated after 13 days; for pest or weed control at 15.625 g/ha: 15.625 g ai/ha; for pest or weed control at 15.625 g/ha / pest or weed control at 250 g/ha: read-out: Velvetleaf damage rating (100=total damage to plant; 0=no damage to plant); for pest or weed control at 62.5 g/ha: 62.5 g ai/ha, 100=total damage to plant, 0=no damage to plant, read-out: plant damage rating, Velvetleaf; for pest or weed control at 250 g/ha: 250 g ai/ha
Method: (§1) Seeds of corn (Zea mays), giant foxtail (Setaria faberi), barnyardgrass (Echinochloa crus-galli), ivy-leaved morning glory (Ipomoea hederacea), redroot pigweed (Amaranthus retroflexus) and velvetleaf (Abutilon theophrasti) were sown in standard soil in pots. After cultivation for one day under controlled conditions in a glasshouse (at 24/16° C., day/night; 14 hours light; 65% humidity), the plants were sprayed with an aqueous spray solution derived from the formulation of the technical active ingredient in acetone/water (50:50) solution containing 0.5% Tween 20 (polyoxyethylene sorbitan monolaurate, CAS RN 9005-64-5) to give a final dose of 15.625, 62.5 or 250 g/ha of test compound.
(§2) The test plants were then grown on under controlled conditions in a glasshouse (at 24/16° C., day/night; 14 hours light; 65% humidity) and watered twice daily. After 13 days the test was evaluated (100=total damage to plant; 0=no damage to plant). A dash (-) means no test result.

[2] = test system: giant foxtail (Setaria faberi); experiment: Test G Pre-Emergence Protocol; conditions: Setaria faberi, pre-emergence, 312 h, evaluated after 13 days; for pest or weed control at 15.625 g/ha: 15.625 g ai/ha; for pest or weed control at 15.625 g/ha / pest or weed control at 250 g/ha: read-out: Foxtail, Giant damage rating (100=total damage to plant; 0=no damage to plant); for pest or weed control at 62.5 g/ha: 62.5 g ai/ha, 100=total damage to plant, 0=no damage to plant, read-out: plant damage rating, Foxtail, Giant; for pest or weed control at 250 g/ha: 250 g ai/ha
Method: as §1, §2

[3] = test system: ivy-leaved morning glory (Ipomoea hederacea); experiment: Test G Pre-Emergence Protocol; conditions: Ipomoea, pre-emergence, 312 h, evaluated after 13 days; for pest or weed control at 15.625 g/ha: 15.625 g ai/ha, read-out: Morning-glory, Ivy-leaved damage rating (100=total damage to plant; 0=no damage to plant); for pest or weed control at 62.5 g/ha: 62.5 g ai/ha, 100=total damage to plant, 0=no damage to plant, read-out: plant damage rating, Morningglory, Ivy-leaved; for pest or weed control at 250 g/ha: 250 g ai/ha, read-out: Morningglory, Ivy-leaved damage rating (100=total damage to plant; 0=no damage to plant)
Method: as §1, §2

[4] = test system: barnyardgrass (Echinochloa crus-galli); experiment: Test G Pre-Emergence Protocol; conditions: Echinochloa crus-galli, pre-emergence, 312 h, evaluated after 13 days; for pest or weed control at 15.625 g/ha: 15.625 g ai/ha, read-out: Barnyard grass damage rating (100=total damage to plant; 0=no damage to plant); for pest or weed control at 62.5 g/ha: 62.5 g ai/ha, 100=total damage to plant, 0=no damage to plant, read-out: plant damage rating, Barnyardgrass; for pest or weed control at 250 g/ha: 250 g ai/ha, read-out: Barnyardgrass damage rating (100=total damage to plant; 0=no damage to plant)
Method: as §1, §2

corn (Zea mays) [5] = experiment: Test G Pre-Emergence Protocol; conditions: Zea mays, pre-emergence, 312 h, evaluated after 13 days; for plant injury at 15.625 g/ha: 15.625 g ai/ha; for plant injury at 15.625 g/ha / plant injury at 250 g/ha: read-out: Corn damage rating (100=total damage to plant; 0=no damage to plant); for plant injury at 62.5 g/ha: 62.5 g ai/ha, 100=total damage to plant, 0=no damage to plant, read-out: plant damage rating, Corn; for plant injury at 250 g/ha: 250 g ai/ha
Method: as §1, §2

[6] = test system: redroot pigweed (Amaranthus retroflexus); experiment: Test G Pre-Emergence Protocol; conditions: Amaranthus retroflexus, pre-emergence, 312 h, evaluated after 13 days; for pest or weed control at 15.625 g/ha: 15.625 g ai/ha; for pest or weed control at 15.625 g/ha / pest or weed control at 250 g/ha: read-out: Pigweed, Redroot damage rating (100=total damage to plant; 0=no damage to plant); for pest or weed control at 62.5 g/ha: 62.5 g ai/ha, 100=total damage to plant, 0=no damage to plant, read-out: plant damage rating, Pigweed, Redroot; for pest or weed control at 250 g/ha: 250 g ai/ha
Method: as §1, §2

[7] = test system: velvetleaf (Abutilon theophrasti); experiment: Test A preemergence; conditions: Abutilon theophrasti, pre-emergence, 240 h, 0 to 100 scale (0 no effect, 100 complete control), read-out: Plant response rating, Velvetleaf
In short: (§3)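 Compounds were formulated in a non-phytotoxic solvent mixture with surfactant and applied as a preemergence directed soil spray after seeding, or sprayed postemergence over plants 2 to 10 cm tall at the one- to two-leaf stage. Evaluation after about 10 d compared treated with untreated controls, using a scale from 0 (no effect) to 100 (complete control).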

[8] = test system: wheat (Triticum aestivum); experiment: Test A preemergence; conditions: Triticum aestivum, pre-emergence, 240 h, 0 to 100 scale (0 no effect, 100 complete control), read-out: Plant response rating, Wheat
In short: as §3

[9] = test system: crabgrass, large (Digitaria sanguinalis); experiment: Test A preemergence; conditions: Digitaria sanguinalis, pre-emergence, 240 h, 0 to 100 scale (0 no effect, 100 complete control), read-out: Plant response rating, Crabgrass, Large
In short: as §3

corn (Zea mays) [10] = experiment: Test A preemergence; conditions: Zea mays, pre-emergence, 240 h, 0 to 100 scale (0 no effect, 100 complete control)
In short: as §3

[11] = test system: morningglory (Ipomoea spp.); experiment: Test A preemergence; conditions: Ipomoea, pre-emergence, 240 h, 0 to 100 scale (0 no effect, 100 complete control), read-out: Plant response rating, Morningglory
In short: as §3

[12] = test system: velvetleaf (Abutilon theophrasti); experiment: Test A postemergence; conditions: Abutilon theophrasti, post-emergence, 240 h, Postemergence
In short: as §3

[13] = test system: crabgrass, large (Digitaria sanguinalis); experiment: Test A postemergence; conditions: Digitaria sanguinalis, post-emergence, 240 h, Postemergence
In short: as §3

[14] = test system: morningglory (Ipomoea spp.); experiment: Test A postemergence; conditions: Ipomoea, post-emergence, 240 h, Postemergence
In short: as §3

SMILES | pest or weed control at 15.625 g/ha [1] | pest or weed control at 62.5 g/ha [1] | pest or weed control at 250 g/ha [1] | pest or weed control at 15.625 g/ha [2] | pest or weed control at 62.5 g/ha [2] | pest or weed control at 250 g/ha [2] | pest or weed control at 15.625 g/ha [3] | pest or weed control at 62.5 g/ha [3] | pest or weed control at 250 g/ha [3] | pest or weed control at 15.625 g/ha [4] | pest or weed control at 62.5 g/ha [4] | pest or weed control at 250 g/ha [4] | plant injury at 15.625 g/ha (corn (Zea mays) [5]) | plant injury at 62.5 g/ha (corn (Zea mays) [5]) | plant injury at 250 g/ha (corn (Zea mays) [5]) | pest or weed control at 15.625 g/ha [6] | pest or weed control at 62.5 g/ha [6] | pest or weed control at 250 g/ha [6] | further results
CN1C[C@H](c2cccc(C(C)(C)C#N)c2)[C@@H](C(=O)Nc2cccc(F)c2F)C1=O (racemic) [Compound 1497] | 0% | 0% | 0% | 0% | 60% | 80% | 0% | 0% | 20% | 0% | 30% | 80% | 0% | 0% | 10% | 0% | 0% | 0% | 
CN1C[C@@H](c2ccc(C(F)(F)F)cc2)[C@H](C(=O)Nc2ncc(C(F)(F)F)s2)C1=O (racemic) [Compound 1504] | 0% | 0% | 0% | 0% | 0% | 0% | 0% | 0% | 0% | 0% | 0% | 0% | 0% | 0% | 0% | 0% | 0% | 0% | 
O=C1NCC(c2ccccc2)C1C(=O)Nc1ccc(C(F)(F)F)cc1 (stereo not shown) [Compound 1362] |  |  |  |  |  |  |  |  |  |  |  |  |  |  |  |  |  |  | pest or weed control at 500 g/ha ([7]; 500 g ai/ha, preemergence): 0%; pest or weed control at 125 g/ha ([7]; Preemergence, 125 g ai/ha): 0%; plant injury at 500 g/ha ([8]; 500 g ai/ha, preemergence): 0%; plant injury at 125 g/ha ([8]; Preemergence, 125 g ai/ha): 0%; pest or weed control at 500 g/ha ([9]; 500 g ai/ha, preemergence): 0%; pest or weed control at 125 g/ha ([9]; Preemergence, 125 g ai/ha): 0%; Corn plant response rating (crop injury, 0 = no effect, 100 = complete kill) at 500 g/ha (corn (Zea mays) [10]; 500 g ai/ha, preemergence): 0%; Corn plant response rating (crop injury, 0 = no effect, 100 = complete kill) at 125 g/ha (corn (Zea mays) [10]; Preemergence, 125 g ai/ha): 0%; pest or weed control at 500 g/ha ([11]; 500 g ai/ha, preemergence): 0%; pest or weed control at 125 g/ha ([11]; Preemergence, 125 g ai/ha): 0%; pest or weed control at 125 g/ha ([12]; 125 g ai/ha, visual rating about 10 d after treatment, read-out: Velvetleaf plant response rating (0 to 100 scale)): 0%; pest or weed control at 500 g/ha ([12]; 500 g ai/ha, visual injury, 0 to 100 scale (0 no effect, 100 complete control), approx. 10 d, read-out: Plant response rating, Velvetleaf): 0%; pest or weed control at 125 g/ha ([13]; 125 g ai/ha, visual rating about 10 d after treatment, read-out: Crabgrass, Large plant response rating (0 to 100 scale)): 0%; pest or weed control at 500 g/ha ([13]; 500 g ai/ha, visual injury, 0 to 100 scale (0 no effect, 100 complete control), approx. 10 d, read-out: Plant response rating, Crabgrass, Large): 0%; pest or weed control at 125 g/ha ([14]; 125 g ai/ha, visual rating about 10 d after treatment, read-out: Morningglory plant response rating (0 to 100 scale)): 0%; pest or weed control at 500 g/ha ([14]; 500 g ai/ha, visual injury, 0 to 100 scale (0 no effect, 100 complete control), approx. 10 d, read-out: Plant response rating, Morningglory): 0%
CN1C[C@@H](c2ccc(C(F)(F)F)cc2)[C@H](C(=O)Nc2ccnc(Cl)c2Cl)C1=O (racemic) [Compound 1503] | 0% | 0% | 0% | 0% | 0% | 30% |  | 0% | 0% | 0% | 0% | 20% | 0% | 0% | 0% | 0% |  | 0% | 
CN1C[C@@H](c2ccc(C(F)(F)F)cc2)[C@H](C(=O)Nc2cnccc2C(F)(F)F)C1=O (racemic) [Compound 1401] | 0% | 30% | 70% | 40% | 70% | 90% |  | 0% | 20% | 20% | 30% | 80% | 0% | 10% | 20% | 0% | 40% | 90% | 
